Experimental data: article PMC7156458, “Synthetic biology based construction of biological activity-related library of fungal decalin-containing diterpenoid pyrones” (Nature Communications, 2020)

Biological target: Aβ42 (Homo sapiens, UniProt P05067)
Assay: Th-T (thioflavin-T) assay of Aβ42 aggregation
Format: biochemical
Settings: for Th-T assay plate reading, mean of three wells (Supplementary Fig. 47): source data, Ab alone and No Ab as controls

Sequence of Aβ42 (P05067 672-713): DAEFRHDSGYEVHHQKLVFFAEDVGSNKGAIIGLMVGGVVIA

C=C1CC[C@@H]2[C@](C)(CC[C@H]3O[C@H](C=C(C)C)C[C@@]23C)[C@@H]1Cc1c(O)c(C)c(C)oc1=O [Compound 10, higginsianin A]
Th-T fluorescence, mean of three wells (Aβ42 aggregation time course, reading M117): 3.027 | Th-T fluorescence, mean of three wells (Aβ42 aggregation time course, reading M118): 3.005 | Th-T fluorescence, mean of three wells (Aβ42 aggregation time course, reading M119): 3.036 | Th-T fluorescence, mean of three wells (Aβ42 aggregation time course, reading M120): 3.024 | Th-T fluorescence, mean of three wells (Aβ42 aggregation time course, reading M121): 3.009 | Th-T fluorescence, mean of three wells (Aβ42 aggregation time course, reading M122): 2.9814 | Th-T fluorescence, mean of three wells (Aβ42 aggregation time course, reading M123): 3.007 | Th-T fluorescence, mean of three wells (Aβ42 aggregation time course, reading M124): 3.01 | Th-T fluorescence, mean of three wells (Aβ42 aggregation time course, reading M125): 2.994 | Th-T fluorescence, mean of three wells (Aβ42 aggregation time course, reading M126): 2.985 | Th-T fluorescence, mean of three wells (Aβ42 aggregation time course, reading M127): 3.018 | Th-T fluorescence, mean of three wells (Aβ42 aggregation time course, reading M128): 2.986 | Th-T fluorescence, mean of three wells (Aβ42 aggregation time course, reading M129): 2.997 | Th-T fluorescence, mean of three wells (Aβ42 aggregation time course, reading M130): 3.004 | Th-T fluorescence, mean of three wells (Aβ42 aggregation time course, reading M131): 2.988 | Th-T fluorescence, mean of three wells (Aβ42 aggregation time course, reading M132): 2.974 | Th-T fluorescence, mean of three wells (Aβ42 aggregation time course, reading M133): 2.995 | Th-T fluorescence, mean of three wells (Aβ42 aggregation time course, reading M134): 2.998 | Th-T fluorescence, mean of three wells (Aβ42 aggregation time course, reading M135): 3.001 | Th-T fluorescence, mean of three wells (Aβ42 aggregation time course, reading M136): 2.985 | Th-T fluorescence, mean of three wells (Supplementary Fig. 47, reading M137): 2.995 | Th-T fluorescence, mean of three wells (Supplementary Fig. 47, reading M138): 2.975 | Th-T fluorescence, mean of three wells (Supplementary Fig. 47, reading M139): 2.9735 | Th-T fluorescence, mean of three wells (Supplementary Fig. 47, reading M140): 2.981 | Th-T fluorescence, mean of three wells (Supplementary Fig. 47, reading M141): 2.969 | Th-T fluorescence, mean of three wells (Supplementary Fig. 47, reading M142): 2.937 | Th-T fluorescence, mean of three wells (Supplementary Fig. 47, reading M143): 3.01 | Th-T fluorescence, mean of three wells (Supplementary Fig. 47, reading M144): 2.949 | Th-T fluorescence, mean of three wells (Supplementary Fig. 47, reading M145): 2.953 | Th-T fluorescence, mean of three wells (Supplementary Fig. 47 source data, measurement M37 of time course): 3.026 | Th-T fluorescence, mean of three wells (Supplementary Fig. 47 source data, measurement M38 of time course): 3.058 | Th-T fluorescence, mean of three wells (Supplementary Fig. 47 source data, measurement M39 of time course): 3.066 | Th-T fluorescence, mean of three wells (Supplementary Fig. 47 source data, measurement M40 of time course): 3.0688 | Th-T fluorescence, mean of three wells (Supplementary Fig. 47 source data, measurement M41 of time course): 3.079 | Th-T fluorescence, mean of three wells (Supplementary Fig. 47 source data, measurement M42 of time course): 3.094 | Th-T fluorescence, mean of three wells (Supplementary Fig. 47 source data, measurement M43 of time course): 3.089 | Th-T fluorescence, mean of three wells (Supplementary Fig. 47 source data, measurement M44 of time course): 3.087 | Th-T fluorescence, mean of three wells (Supplementary Fig. 47 source data, measurement M45 of time course): 3.107 | Th-T fluorescence, mean of three wells (Supplementary Fig. 47 source data, measurement M46 of time course): 3.104 | Th-T fluorescence, mean of three wells (Supplementary Fig. 47 source data, measurement M47 of time course): 3.097 | Th-T fluorescence, mean of three wells (Supplementary Fig. 47 source data, measurement M48 of time course): 3.099 | Th-T fluorescence, mean of three wells (Supplementary Fig. 47 source data, measurement M49 of time course): 3.124 | Th-T fluorescence, mean of three wells (Supplementary Fig. 47 source data, measurement M50 of time course): 3.143 | Th-T fluorescence, mean of three wells (Supplementary Fig. 47 source data, measurement M51 of time course): 3.109 | Th-T fluorescence, mean of three wells (Supplementary Fig. 47 source data, measurement M52 of time course): 3.12 | Th-T fluorescence, mean of three wells (Supplementary Fig. 47 source data, measurement M53 of time course): 3.131 | Th-T fluorescence, mean of three wells (Supplementary Fig. 47 source data, measurement M54 of time course): 3.122 | Th-T fluorescence, mean of three wells (Supplementary Fig. 47 source data, measurement M55 of time course): 3.1161 | Th-T fluorescence, mean of three wells (Supplementary Fig. 47 source data, measurement M56 of time course): 3.112 | Th-T assay plate reading, mean of three wells (Supplementary Fig. 47) (measurement M1): 0.2982 | Th-T assay plate reading, mean of three wells (Supplementary Fig. 47) (measurement M2): 0.2966 | Th-T assay plate reading, mean of three wells (Supplementary Fig. 47) (measurement M3): 0.3112 | Th-T assay plate reading, mean of three wells (Supplementary Fig. 47) (measurement M4): 0.3288 | Th-T assay plate reading, mean of three wells (Supplementary Fig. 47) (measurement M5): 0.3791 | Th-T assay plate reading, mean of three wells (Supplementary Fig. 47) (measurement M6): 0.4184 | Th-T assay plate reading, mean of three wells (Supplementary Fig. 47) (measurement M7): 0.4946 | Th-T assay plate reading, mean of three wells (Supplementary Fig. 47) (measurement M8): 0.5732 | Th-T assay plate reading, mean of three wells (Supplementary Fig. 47) (measurement M9): 0.6554 | Th-T assay plate reading, mean of three wells (Supplementary Fig. 47) (measurement M10): 0.6998 | Th-T assay plate reading, mean of three wells (Supplementary Fig. 47) (measurement M11): 0.7388 | Th-T assay plate reading, mean of three wells (Supplementary Fig. 47) (measurement M12): 0.7839 | Th-T assay plate reading, mean of three wells (Supplementary Fig. 47) (measurement M13): 0.8524 | Th-T assay plate reading, mean of three wells (Supplementary Fig. 47) (measurement M14): 1.025 | Th-T assay plate reading, mean of three wells (Supplementary Fig. 47) (measurement M15): 1.367 | Th-T assay plate reading, mean of three wells (Supplementary Fig. 47) (measurement M16): 1.777 | Th-T fluorescence, mean of three wells (reading M17, Supplementary Fig. 47 source data): 2.114 | Th-T fluorescence, mean of three wells (reading M18, Supplementary Fig. 47 source data): 2.387 | Th-T fluorescence, mean of three wells (reading M19, Supplementary Fig. 47 source data): 2.598 | Th-T fluorescence, mean of three wells (reading M20, Supplementary Fig. 47 source data): 2.677 | Th-T fluorescence, mean of three wells (reading M21, Supplementary Fig. 47 source data): 2.685 | Th-T fluorescence, mean of three wells (reading M22, Supplementary Fig. 47 source data): 2.669 | Th-T fluorescence, mean of three wells (reading M23, Supplementary Fig. 47 source data): 2.723 | Th-T fluorescence, mean of three wells (reading M24, Supplementary Fig. 47 source data): 2.7479 | Th-T fluorescence, mean of three wells (reading M25, Supplementary Fig. 47 source data): 2.777 | Th-T fluorescence, mean of three wells (reading M26, Supplementary Fig. 47 source data): 2.823 | Th-T fluorescence, mean of three wells (reading M27, Supplementary Fig. 47 source data): 2.858 | Th-T fluorescence, mean of three wells (reading M28, Supplementary Fig. 47 source data): 2.868 | Th-T fluorescence, mean of three wells (reading M29, Supplementary Fig. 47 source data): 2.914 | Th-T fluorescence, mean of three wells (reading M30, Supplementary Fig. 47 source data): 2.924 | Th-T fluorescence, mean of three wells (reading M31, Supplementary Fig. 47 source data): 2.961 | Th-T fluorescence, mean of three wells (reading M32, Supplementary Fig. 47 source data): 2.958 | Th-T fluorescence, mean of three wells (reading M33, Supplementary Fig. 47 source data): 2.966 | Th-T fluorescence, mean of three wells (reading M34, Supplementary Fig. 47 source data): 3.0036 | Th-T fluorescence, mean of three wells (reading M35, Supplementary Fig. 47 source data): 3.001 | Th-T fluorescence, mean of three wells (reading M36, Supplementary Fig. 47 source data): 3.031 | Th-T fluorescence, mean of three wells (time course, reading M57): 3.145 | Th-T fluorescence, mean of three wells (time course, reading M58): 3.098 | Th-T fluorescence, mean of three wells (time course, reading M59): 3.0965 | Th-T fluorescence, mean of three wells (time course, reading M60): 3.12 | Th-T fluorescence, mean of three wells (time course, reading M61): 3.114 | Th-T fluorescence, mean of three wells (time course, reading M62): 3.124 | Th-T fluorescence, mean of three wells (time course, reading M63): 3.121 | Th-T fluorescence, mean of three wells (time course, reading M64): 3.089 | Th-T fluorescence, mean of three wells (time course, reading M65): 3.1417 | Th-T fluorescence, mean of three wells (time course, reading M66): 3.124 | Th-T fluorescence, mean of three wells (time course, reading M67): 3.125 | Th-T fluorescence, mean of three wells (time-course reading M97, Supplementary Fig. 47 source data): 3.037 | Th-T fluorescence, mean of three wells (time-course reading M98, Supplementary Fig. 47 source data): 3.037 | Th-T fluorescence, mean of three wells (time-course reading M99, Supplementary Fig. 47 source data): 3.05 | Th-T fluorescence, mean of three wells (time-course reading M100, Supplementary Fig. 47 source data): 3.074 | Th-T fluorescence, mean of three wells (time-course reading M101, Supplementary Fig. 47 source data): 3.025 | Th-T fluorescence, mean of three wells (time-course reading M102, Supplementary Fig. 47 source data): 3.036 | Th-T fluorescence, mean of three wells (time-course reading M103, Supplementary Fig. 47 source data): 3.034 | Th-T fluorescence, mean of three wells (time-course reading M104, Supplementary Fig. 47 source data): 3.0181 | Th-T fluorescence, mean of three wells (time-course reading M105, Supplementary Fig. 47 source data): 3.041 | Th-T fluorescence, mean of three wells (time-course reading M106, Supplementary Fig. 47 source data): 3.028 | Th-T fluorescence, mean of three wells (time-course reading M107, Supplementary Fig. 47 source data): 3.025 | Th-T fluorescence, mean of three wells (time-course reading M108, Supplementary Fig. 47 source data): 3.028 | Th-T fluorescence, mean of three wells (time-course reading M109, Supplementary Fig. 47 source data): 3.032 | Th-T fluorescence, mean of three wells (time-course reading M110, Supplementary Fig. 47 source data): 3.022 | Th-T fluorescence, mean of three wells (time-course reading M111, Supplementary Fig. 47 source data): 3.062 | Th-T fluorescence, mean of three wells (time-course reading M112, Supplementary Fig. 47 source data): 3.021 | Th-T fluorescence, mean of three wells (time-course reading M113, Supplementary Fig. 47 source data): 3.021 | Th-T fluorescence, mean of three wells (time-course reading M114, Supplementary Fig. 47 source data): 3.0544 | Th-T fluorescence, mean of three wells (time-course reading M115, Supplementary Fig. 47 source data): 3.028 | Th-T fluorescence, mean of three wells (time-course reading M116, Supplementary Fig. 47 source data): 3.017
